How the values were obtained:
GR = settings: Schäcke et al, 2009; cited from earlier work
REDD1 [1] = experiment: REDD1 expression in organotypic raft cultures (Q-PCR, Western blot); type: cell-based, human; settings: control pGIPZ ORCs, short-term (6 h) and chronic (7 days) CBP
Description: Three-dimensional (3-D) organotypic raft cultures (ORC) of human epidermis were made as described in Getsios et al (2009). Briefly, neonatal human epidermal keratinocytes (NHEK) were infected with shRNA- and pGIPZ-expressing lentiviruses followed, 48 h later, by selection for puromycin (2 μg/ml) resistance. Selected keratinocyte cultures were reseeded onto collagen gels with embedded J2-3T3 fibroblasts and cultured at the air-liquid interface as previously described for 3 days to allow the initial phase of epidermis formation. The standard ORC medium contains high 5×10^−7 M hydrocortisone. In our experiments, ORC were cultured in the medium with 10^−8 M hydrocortisone during first 3 days and then were treated with glucocorticoid CBP (5×10^−6 M) or vehicle control (0.05% DMSO) for 7 days. Rafts were treated with BrdU (10^−7 M) 1 h before harvesting and fixed in formalin. […]
Total RNA from murine epidermis, whole human skin, and cell cultures was isolated with RiboPure kit (Ambion, Life Technologies, Grand Island, N.Y., USA). […] The gene expression was assessed using semi-quantitative two-step RT-PCR and quantitative Q-PCR. […] For semi-quantitative PCRs, Taq DNA polymerase (Promega) was used, and PCR products were separated on 1.5% agarose gel and visualized using automated imaging system (Bio-Rad, Hercules, Calif., USA). […]

REDD1 [2] = experiment: REDD1 mRNA expression in human skin (RT-PCR); type: in vivo; settings: human skin treated with CBP 0.05% cream for 24 h-2 weeks
Description: (§1) Glucocorticoid CBP was applied topically as a 0.05% cream to the skin of right arm of healthy human volunteers (age 32-65) once or every 24 h for 2 weeks. Untreated left arm skin was used as control. Whole human skin samples were used for the molecular biological studies.
Total RNA from murine epidermis, whole human skin, and cell cultures was isolated with RiboPure kit (Ambion, Life Technologies, Grand Island, N.Y., USA). Total RNA from murine s.c. adipose was isolated with RNeasy Lipid Tissue Kit (Qiagen, Valencia, Calif., USA). The RNA samples were treated with TURBOT™ DNase (Ambion). The gene expression was assessed using semi-quantitative two-step RT-PCR and quantitative Q-PCR. Reverse transcription was performed using 1 μg RNA, random hexamers, and M-MLV reverse transcriptase (Invitrogen, Life Technologies), according to manufacturer instructions. The gene-specific primers were designed with NCBI Primer-BLAST (data not shown, see Baida et al., EMBO, 2015, at Supplementary Table S4). Q-PCR with SYBR Green detection was performed on the Applied Biosystems® 7000 Real-Time PCR instrument (Life Technologies). […] For semi-quantitative PCRs, Taq DNA polymerase (Promega) was used, and PCR products were separated on 1.5% agarose gel and visualized using automated imaging system (Bio-Rad, Hercules, Calif., USA). […]

[3] = tested on: organotypic raft cultures of primary human epidermal keratinocytes (NHEK); experiment: Hypoplasia/proliferation in 3-D organotypic raft cultures (ORC) of NHEK; type: cell-based; settings: pGIPZ-infected ORCs, 7-day treatment with CBP 5 μM
Description: Three-dimensional (3-D) organotypic raft cultures (ORC) of human epidermis were made as described in Getsios et al (2009). Briefly, neonatal human epidermal keratinocytes (NHEK) were infected with shRNA- and pGIPZ-expressing lentiviruses followed, 48 h later, by selection for puromycin (2 μg/ml) resistance. Selected keratinocyte cultures were reseeded onto collagen gels with embedded J2-3T3 fibroblasts and cultured at the air-liquid interface as previously described for 3 days to allow the initial phase of epidermis formation. The standard ORC medium contains high 5×10^−7 M hydrocortisone. […]
Quantification of the epidermal width and number of basal keratinocytes (as the readouts for skin atrophy and hypoplasia of raft epidermis) was performed in dorsal skin and ORC sections stained with H&E. The number of dermal cells was determined on sections stained with Masson's trichrome in the upper (papillary) dermis that is distinguishable from the lower (reticular) dermis (Driskell et al, 2013). At least 10 individual fields per slide with at least three samples in each experimental group were counted using Axioplan2 microscope software (Carl Zeiss). […]
The numbers of BrdU+, p63+, and total number of basal keratinocytes were evaluated in 10 fields of view in each skin/ORC sample under the microscope. […]

human skin = experiment: Skin atrophy in human volunteers treated with topical glucocorticoid; type: in vivo; settings: 0.05% cream daily, 2-week treatment
Description: as §1
Quantification of the epidermal width and number of basal keratinocytes (as the readouts for skin atrophy and hypoplasia of raft epidermis) was performed in dorsal skin and ORC sections stained with H&E. The number of dermal cells was determined on sections stained with Masson's trichrome in the upper (papillary) dermis that is distinguishable from the lower (reticular) dermis (Driskell et al, 2013). At least 10 individual fields per slide with at least three samples in each experimental group were counted using Axioplan2 microscope software (Carl Zeiss). All measurements are presented as % to corresponding control.

| Compound | anti-inflammatory effect (GR) | skin atrophy (GR) | REDD1 mRNA and protein (REDD1 [1]) | REDD1 mRNA (REDD1 [2]) | decrease in number and proliferation (BrdU incorporation) of basal keratinocytes [3] | negative effect on basal keratinocytes (compared with FA-treated mice) (human skin) |
| --- | --- | --- | --- | --- | --- | --- |
| Cc1ccc2c(NC[C@](O)(CC(C)(C)c3cc(F)cc4c3OCC4)C(F)(F)F)cccc2n1 [ZK245186/mapracorat] | preserve the anti-inflammatory effect of glucocorticoids | do not induce skin atrophy | – | – | – | – |
| CCC(=O)O[C@]1(C(=O)CCl)[C@@H](C)C[C@H]2[C@@H]3CCC4=CC(=O)C=C[C@]4(C)[C@@]3(F)[C@@H](O)C[C@@]21C [CBP, clobetasol propionate] | – | – | induced REDD1 mRNA and protein | strongly up-regulated | 25-40% | less pronounced |

Source: patent US9980976B2, “Use of REDD1 inhibitors to dissociate therapeutic and adverse atrophogenic effects of glucocorticoid receptor agonists” (Northwestern University, priority 2015, dated 2018)
